The values that follow come from patent publication US8389573B2, “Glycyrrhetinic acid derivatives” (Wellington Laboratories Inc., priority 2006, dated 2013).

In data set [1] the test system is PPARγ. The conditions noted are these: SW480 cells, previous studies (22); cited from earlier work.
Data set [2] deals with T1, PPARγ-coactivator interactions (Homo sapiens, UniProt P37231).
T1 construct: expressed in transfected cells; host or cells: SW480 cells, transient transfection (LipofectAMINE)
T1 sequence (P37231 238-503 limits assumed): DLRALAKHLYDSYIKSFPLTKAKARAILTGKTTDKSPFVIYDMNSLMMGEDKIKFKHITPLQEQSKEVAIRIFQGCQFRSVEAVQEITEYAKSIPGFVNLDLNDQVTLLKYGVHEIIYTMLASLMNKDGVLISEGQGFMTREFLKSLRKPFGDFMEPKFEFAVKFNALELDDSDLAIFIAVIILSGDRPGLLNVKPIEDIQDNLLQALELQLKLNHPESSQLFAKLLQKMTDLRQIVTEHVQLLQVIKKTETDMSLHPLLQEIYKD
The conditions noted are these: SW480 cells, reference (22); cited from earlier work.

For data set [3], the system named is SW480 cells. As to the kind of experiment: Western blot analysis in SW480 cells. Type of data set: cell-based, human. The conditions noted are these: SW480, treatment for 3 days. The procedure: SW-480 and HT-29 (3×10^5) cells were seeded in six-well plates in DMEM/Ham's F-12 media containing 2.5% charcoal-stripped FBS for 24 h and then treated with either the vehicle (DMSO) or the indicated compounds. Whole-cell lysates were obtained using high-salt buffer [50 mM HEPES, 500 mM NaCl, 1.5 mM MgCl2, 1 mM EGTA, 10% glycerol, and 1% Triton X-100, pH 7.5, and 5 μl/ml Protease Inhibitor Cocktail (Sigma-Aldrich)]. Protein samples were incubated at 100° C. for 2 min, separated on 10% SDS-PAGE at 120 V for 3 to 4 h in 1× running buffer (25 mM Tris-base, 192 mM glycine, and 0.1% SDS, pH 8.3), and transferred to polyvinylidene difluoride membrane (PVDF; Bio-Rad, Hercules, Calif.) at […] for 16 h at 4° C. in 1× transfer buffer (48 mM Tris-HCl, 39 mM glycine, and 0.025% SDS). The PVDF membrane was blocked in 5% TBST-Blotto (10 mM Tris-HCl, 150 mM NaCl, pH 8.0, 0.05% Triton X-100, and 5% nonfat dry milk) with gentle shaking for 30 min and was incubated in fresh 5% TBST-Blotto with 1:1000 (for caveolin-1, p27, p21, cyclin D1, Grp78), 1:500 (for KLF4, NAG-1), 1:250 (for PARP), and 1:5000 (for β-actin) primary antibody overnight with gentle shaking at 4° C. After washing with TBST for 10 min, the PVDF membrane was incubated with secondary antibody (1:5000) in 5% TBST-Blotto for 90 min. The membrane was washed with TBST for 10 min, incubated with 10 ml of chemiluminescence substrate (PerkinElmer) for 1.0 min, and exposed to Kodak X-OMAT AR autoradiography film (Eastman Kodak, Rochester, N.Y.).
A general note: Immunoblotting shows a protein as a band on a membrane.

The test system of data set [4] is p21 promoter. As to the kind of experiment: p21 promoter construct luciferase assay in LNCaP cells. It is filed as cell-based. The conditions noted are these: 10 μM PD98059.
In data set [5] the test system is LNCaP cells. Description: Western blot analysis and DNA fragmentation assay in LNCaP cells. It is filed as cell-based, human. The conditions noted are these: 2.5 μM β-CDODA-Me, 24 hr. The procedure: Cell Proliferation and DNA Fragmentation Assays: LNCaP prostate cancer cells (2×10^4 per well) were added to 12-well plates and allowed to attach for 24 hr. The medium was then changed to DMEM/Ham's F-12 media containing 2.5% charcoal-stripped FBS, and either vehicle (DMSO) or the indicated C-DIMs were added. Fresh medium and indicated compounds were added every 48 hr, and cells were then trypsinized and counted after 2, 4, and 6 days using a Coulter Z1 cell counter (Beckman Coulter, Fullerton, Calif.). Each experiment was done in triplicate, and results are expressed as means±S.E. for each set of three experiments. The DNA fragmentation assay was performed using a BioVision Apoptotic DNA ladder extraction kit (BioVision, Mountain View, Calif.) according to the manufacturer's protocol.
Western Blot Analysis: Cells were seeded in DMEM:Ham's F-12 media containing 2.5% charcoal-stripped FBS for 24 hr and then treated with either the vehicle (DMSO) or the indicated compounds. Cells were collected by scraping in 150 μl high salt lysis buffer (50 mM HEPES, 0.5 M NaCl, 1.5 mM MgCl2, 1 mM EGTA, 10% (v/v) glycerol, 1% (v/v) Triton-X-100 and 5 μL/ml of Protease Inhibitor Cocktail (Sigma). The lysates were incubated on ice for 1 hr with intermittent vortexing followed by centrifugation at 20,000 g for 10 min at 4° C. Before electrophoresis, samples were boiled for 3 min at 100° C.; the amount of protein was determined and 60 μg protein applied per lane. Samples were subjected to SDS-PAGE on 10% gel at 120 V for 3 to 4 hr. Proteins were transferred on to polyvinylidene difluoride membrane (PVDF; Bio-Rad, Hercules, Calif.) at 0.9 amp for 90 min at 4° C. in 1× transfer buffer (48 mM Tris-HCl, 39 mM glycine, and 0.025% SDS). The membranes were blocked for 30 min with 5% TBST-Blotto (10 mM Tris-HCl, 150 mM NaCl (pH 8.0), 0.05% Triton X-100 and 5% non-fat dry milk) and incubated in fresh 5% TBST-Blotto with primary antibody overnight with gentle shaking at 4° C. After washing with TBST for 10 min, the PVDF membrane was incubated with secondary antibody (1:5000) in 5% TBST-Blotto for 2-3 hr. The membrane was washed with TBST for 10 min and incubated with 10 ml of chemiluminescence substrate (PerkinElmer Life Sciences) for 1.0 min and exposed to ImageTeK-H medical imaging film (Eastman American X-ray Supply, Inc.).

For data set [6], the system named is Sp1, Sp3 and Sp4 in liver. Description: Sp protein expression in non-target tissue (liver) of treated mice. The conditions noted are these: preliminary results. It is filed as in vivo. The text has this: (i) Animal treatment: Male athymic nude mice are obtained from commercial sources and their use approved by the Institutional Animal Care and Use Committee. Ten animals are used for each treatment group and based on consultation with biostatisticians, this number is sufficient for determining statistical significance between treatment groups (41, 42). At least one AR-positive (LNCaP/22Rv1) and AR-negative (PC3/DU145) prostate cancer cell line is used in the xenograft study. Cells are harvested by exposure to trypsin and resuspended in serum-free Hanks' balanced salt solution (HBSS). […] In addition, Western blot analysis of Sp proteins, proapoptotic and antiangiogenic responses is determined on whole cell lysates from compound- and corn oil (vehicle)-treated tumors. Where possible (depending on the amount of protein extracted), the effects of the compound versus corn oil on expression of these proteins is quantitated and statistically analyzed. In addition, the effects of the compound on Sp protein expression in non-target tissue (e.g. liver and kidney) is determined. […] Immunostaining for Sp1, Sp3 and Sp4 and for angiogenic (VEGF, VEGFR1 and VEGFR2) and apoptotic (cleaved PARP, activated caspase 3, survivin and TUNEL) proteins/responses are determined as described above.

Regarding `COC(=O)[C@]12CCC(C)(C)C[C@H]1[C@H]1C(=O)C=C3[C@@]4(C)C=C(C#N)C(=O)C(C)(C)[C@@H]4CC[C@@]3(C)[C@]1(C)CC2` [CDDO-Me], the “luciferase activity with GAL4-PPARγ/GAL4-Luc” value in data set [1] is “induced luciferase activity”. Further, the “interactions between VP-PPARγ and GAL4-coactivator/corepressor chimeras (SRC1, SRC2, SRC3, PGC1, TRAP220, CARM1, SMRT)” value in data set [2] is reported as “induced interactions”. Moreover, the caveolin-1 protein expression entry in data set [3] is given as “induce caveolin-1 protein”.
With `COc1cccc(-c2cc(=O)c3ccccc3o2)c1N` [PD98059, reference compound], in data set [4], the “effect on β-CDODA-Me-induced p21-luc(101) luciferase activity” value is reported as “inhibited this response”. Also, in data set [5], the “effect of kinase inhibitor on induction of ATF-3 by β-CDODA-Me” value was “blocked induction”; the “effect of kinase inhibitor on induction of NAG-1 by β-CDODA-Me” value is “inhibited induction”; the “effect on β-CDODA-Me downregulation of cyclin D1 and induction of p21” value was “partially blocked”.
For the compound `COC(=O)[C@@]1(C)CCC2(C)CC[C@]3(C)C(=CC(=O)[C@@H]4C5(C)C=C(I)C(=O)C(C)(C)[C@@H]5CCC43C)C2C1` (stereo partly drawn) [β-IDODA-Me, Methyl 2-iodo-3,11-dioxo-18β-oleana-1,12-diene-30-oate], the “Sp1, Sp3 and Sp4 expression in liver” value in data set [6] was “unaffected”.
